From paper PMC11864979, “First-in-class ultralong-target-residence-time p38α inhibitors as a mitosis-targeted therapy for colorectal cancer” (Nature Cancer, 2025)
Where two headings read alike, the source gives them in different places.

Key:
Test in all cases: selectivity profiling in a panel of 340 wild-type kinases (Reaction Biology Europe)
Assay type in all cases: binding
[1] = target: T1, 340 wild-type kinases (Homo sapiens, UniProt P17948)
T1 construct: purchased Reaction Biology Europe

[2] = target: T2, 340 wild-type kinases (Homo sapiens, UniProt P36896)
T2 construct: purchased Reaction Biology Europe
T2 sequence (P36896 24-505): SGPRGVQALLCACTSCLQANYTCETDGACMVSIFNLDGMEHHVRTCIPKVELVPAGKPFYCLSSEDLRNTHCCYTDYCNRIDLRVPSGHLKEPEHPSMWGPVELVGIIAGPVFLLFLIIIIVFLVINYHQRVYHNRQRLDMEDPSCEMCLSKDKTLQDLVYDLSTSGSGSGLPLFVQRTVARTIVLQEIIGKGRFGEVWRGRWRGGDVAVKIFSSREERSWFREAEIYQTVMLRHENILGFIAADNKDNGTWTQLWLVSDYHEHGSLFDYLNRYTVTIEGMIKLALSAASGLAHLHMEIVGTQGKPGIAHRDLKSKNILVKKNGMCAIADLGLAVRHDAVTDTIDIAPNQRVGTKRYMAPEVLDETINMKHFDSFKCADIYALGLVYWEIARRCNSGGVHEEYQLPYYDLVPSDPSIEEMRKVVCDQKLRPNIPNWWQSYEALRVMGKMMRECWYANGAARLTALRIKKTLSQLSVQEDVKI

[3] = target: T3, 340 wild-type kinases (Homo sapiens, UniProt Q13131)
T3 construct: purchased Reaction Biology Europe
T3 sequence (Q13131 whole entry): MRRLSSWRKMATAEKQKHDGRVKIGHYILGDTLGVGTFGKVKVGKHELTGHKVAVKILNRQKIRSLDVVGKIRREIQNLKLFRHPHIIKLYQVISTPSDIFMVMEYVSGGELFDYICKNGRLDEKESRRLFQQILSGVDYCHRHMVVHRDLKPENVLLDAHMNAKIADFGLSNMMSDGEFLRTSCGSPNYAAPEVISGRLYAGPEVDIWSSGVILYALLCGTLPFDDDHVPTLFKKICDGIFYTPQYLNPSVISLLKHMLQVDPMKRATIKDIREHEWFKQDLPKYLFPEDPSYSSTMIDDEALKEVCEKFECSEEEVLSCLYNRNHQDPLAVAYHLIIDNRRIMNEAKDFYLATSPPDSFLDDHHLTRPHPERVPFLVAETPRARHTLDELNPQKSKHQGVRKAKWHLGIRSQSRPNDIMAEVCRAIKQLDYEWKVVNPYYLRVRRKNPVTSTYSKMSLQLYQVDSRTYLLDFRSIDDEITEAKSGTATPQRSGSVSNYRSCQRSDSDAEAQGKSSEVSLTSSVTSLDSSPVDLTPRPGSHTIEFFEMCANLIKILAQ

[4] = target: T4, 340 wild-type kinases (Homo sapiens, UniProt Q7KZI7)
T4 construct: purchased Reaction Biology Europe
T4 sequence (Q7KZI7 whole entry): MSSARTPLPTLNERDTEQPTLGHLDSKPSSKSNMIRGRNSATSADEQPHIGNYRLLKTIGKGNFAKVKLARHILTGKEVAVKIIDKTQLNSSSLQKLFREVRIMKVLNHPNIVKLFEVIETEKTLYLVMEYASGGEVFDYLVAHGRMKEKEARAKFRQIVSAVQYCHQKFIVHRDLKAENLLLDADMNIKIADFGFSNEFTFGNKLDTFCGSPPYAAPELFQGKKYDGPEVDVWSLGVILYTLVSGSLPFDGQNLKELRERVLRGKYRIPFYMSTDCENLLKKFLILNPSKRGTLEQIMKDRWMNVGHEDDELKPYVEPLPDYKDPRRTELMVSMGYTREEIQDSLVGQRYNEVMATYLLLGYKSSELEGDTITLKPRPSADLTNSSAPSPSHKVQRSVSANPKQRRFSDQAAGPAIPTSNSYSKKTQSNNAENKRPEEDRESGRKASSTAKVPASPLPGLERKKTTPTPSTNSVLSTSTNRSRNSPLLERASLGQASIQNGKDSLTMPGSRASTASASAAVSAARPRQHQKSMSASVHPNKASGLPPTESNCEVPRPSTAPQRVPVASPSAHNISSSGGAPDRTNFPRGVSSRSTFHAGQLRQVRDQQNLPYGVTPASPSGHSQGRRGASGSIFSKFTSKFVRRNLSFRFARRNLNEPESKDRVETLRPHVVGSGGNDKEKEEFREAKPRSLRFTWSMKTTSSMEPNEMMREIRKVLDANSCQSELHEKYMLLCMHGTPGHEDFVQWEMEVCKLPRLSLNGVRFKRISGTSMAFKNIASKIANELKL

[5] = target: T5, 340 wild-type kinases (Homo sapiens, UniProt Q9UL54)
T5 construct: purchased Reaction Biology Europe
T5 sequence (Q9UL54 1-1235): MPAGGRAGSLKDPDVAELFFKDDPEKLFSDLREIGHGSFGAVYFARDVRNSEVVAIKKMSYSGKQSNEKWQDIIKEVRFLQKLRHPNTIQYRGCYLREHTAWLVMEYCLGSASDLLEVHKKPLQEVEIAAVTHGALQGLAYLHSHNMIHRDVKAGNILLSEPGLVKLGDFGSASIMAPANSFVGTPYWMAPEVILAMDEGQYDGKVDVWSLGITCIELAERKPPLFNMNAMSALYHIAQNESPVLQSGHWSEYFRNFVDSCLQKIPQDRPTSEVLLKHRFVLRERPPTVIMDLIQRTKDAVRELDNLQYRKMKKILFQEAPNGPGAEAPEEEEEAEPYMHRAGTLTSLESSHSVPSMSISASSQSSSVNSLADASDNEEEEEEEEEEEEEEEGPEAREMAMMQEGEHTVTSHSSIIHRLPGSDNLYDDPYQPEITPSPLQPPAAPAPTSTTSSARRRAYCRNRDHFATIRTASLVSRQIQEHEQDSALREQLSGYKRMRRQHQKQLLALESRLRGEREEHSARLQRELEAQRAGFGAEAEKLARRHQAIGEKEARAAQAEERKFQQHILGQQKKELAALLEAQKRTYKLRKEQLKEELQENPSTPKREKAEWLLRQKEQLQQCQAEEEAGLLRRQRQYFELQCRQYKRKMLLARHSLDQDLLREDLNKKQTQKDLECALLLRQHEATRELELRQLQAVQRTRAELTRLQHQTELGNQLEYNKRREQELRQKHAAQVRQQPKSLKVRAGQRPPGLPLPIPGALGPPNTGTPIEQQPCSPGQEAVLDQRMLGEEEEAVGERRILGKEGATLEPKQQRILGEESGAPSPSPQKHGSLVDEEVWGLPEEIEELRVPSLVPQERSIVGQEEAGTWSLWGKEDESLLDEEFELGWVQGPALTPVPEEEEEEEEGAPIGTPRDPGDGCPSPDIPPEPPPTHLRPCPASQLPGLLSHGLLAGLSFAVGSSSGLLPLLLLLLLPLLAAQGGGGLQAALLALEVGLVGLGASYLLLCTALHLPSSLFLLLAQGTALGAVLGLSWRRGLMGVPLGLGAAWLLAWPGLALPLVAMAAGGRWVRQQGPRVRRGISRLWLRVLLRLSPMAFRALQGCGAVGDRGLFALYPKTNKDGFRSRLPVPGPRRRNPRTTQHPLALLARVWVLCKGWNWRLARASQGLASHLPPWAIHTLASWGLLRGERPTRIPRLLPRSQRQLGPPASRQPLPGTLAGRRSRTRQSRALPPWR

[6] = target: T6, 340 wild-type kinases (Homo sapiens, UniProt Q9Y5S2)
T6 construct: purchased Reaction Biology Europe
T6 sequence (Q9Y5S2 whole entry): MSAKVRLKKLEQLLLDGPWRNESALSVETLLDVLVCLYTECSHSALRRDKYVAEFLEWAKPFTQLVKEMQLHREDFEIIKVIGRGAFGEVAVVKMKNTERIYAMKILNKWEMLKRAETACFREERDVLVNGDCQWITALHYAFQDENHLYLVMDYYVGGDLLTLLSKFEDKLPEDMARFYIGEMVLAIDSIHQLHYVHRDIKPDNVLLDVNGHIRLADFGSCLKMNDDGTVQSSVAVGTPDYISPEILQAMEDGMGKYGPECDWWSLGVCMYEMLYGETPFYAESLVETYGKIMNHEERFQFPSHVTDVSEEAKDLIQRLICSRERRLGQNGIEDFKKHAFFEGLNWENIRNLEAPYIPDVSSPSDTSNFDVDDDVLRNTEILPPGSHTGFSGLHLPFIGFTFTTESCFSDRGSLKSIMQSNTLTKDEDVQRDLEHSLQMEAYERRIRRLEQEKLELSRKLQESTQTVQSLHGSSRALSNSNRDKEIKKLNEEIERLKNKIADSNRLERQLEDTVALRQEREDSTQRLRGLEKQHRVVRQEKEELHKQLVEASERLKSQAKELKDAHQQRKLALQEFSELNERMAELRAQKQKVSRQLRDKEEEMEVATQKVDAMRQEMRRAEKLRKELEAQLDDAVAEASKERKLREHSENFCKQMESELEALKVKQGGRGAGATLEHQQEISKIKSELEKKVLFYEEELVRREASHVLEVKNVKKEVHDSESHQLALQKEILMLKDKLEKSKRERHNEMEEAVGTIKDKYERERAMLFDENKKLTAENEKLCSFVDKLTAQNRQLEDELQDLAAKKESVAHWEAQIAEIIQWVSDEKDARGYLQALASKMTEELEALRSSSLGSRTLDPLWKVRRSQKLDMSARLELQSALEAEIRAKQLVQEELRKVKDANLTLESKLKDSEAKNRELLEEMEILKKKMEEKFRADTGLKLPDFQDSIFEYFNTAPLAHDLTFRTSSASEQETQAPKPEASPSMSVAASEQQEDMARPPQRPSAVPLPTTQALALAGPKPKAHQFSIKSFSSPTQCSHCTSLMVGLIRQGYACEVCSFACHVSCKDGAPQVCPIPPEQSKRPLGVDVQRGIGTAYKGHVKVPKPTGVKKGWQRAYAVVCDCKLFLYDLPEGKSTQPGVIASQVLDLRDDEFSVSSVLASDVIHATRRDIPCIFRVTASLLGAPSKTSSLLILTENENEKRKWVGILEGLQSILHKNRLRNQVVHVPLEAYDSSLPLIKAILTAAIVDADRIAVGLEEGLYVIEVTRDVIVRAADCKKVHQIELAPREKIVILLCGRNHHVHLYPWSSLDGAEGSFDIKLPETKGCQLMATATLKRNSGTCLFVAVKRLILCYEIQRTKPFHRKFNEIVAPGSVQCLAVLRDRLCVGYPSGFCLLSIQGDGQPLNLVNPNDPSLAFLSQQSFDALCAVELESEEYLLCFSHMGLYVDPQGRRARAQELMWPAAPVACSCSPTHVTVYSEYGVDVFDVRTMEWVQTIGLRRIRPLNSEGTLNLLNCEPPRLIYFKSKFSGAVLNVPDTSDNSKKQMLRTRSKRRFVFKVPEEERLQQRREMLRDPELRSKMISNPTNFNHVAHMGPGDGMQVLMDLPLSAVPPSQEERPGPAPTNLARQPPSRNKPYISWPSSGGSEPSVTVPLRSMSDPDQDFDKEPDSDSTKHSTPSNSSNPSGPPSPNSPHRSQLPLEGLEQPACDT

T1 sequence (P17948 27-1338): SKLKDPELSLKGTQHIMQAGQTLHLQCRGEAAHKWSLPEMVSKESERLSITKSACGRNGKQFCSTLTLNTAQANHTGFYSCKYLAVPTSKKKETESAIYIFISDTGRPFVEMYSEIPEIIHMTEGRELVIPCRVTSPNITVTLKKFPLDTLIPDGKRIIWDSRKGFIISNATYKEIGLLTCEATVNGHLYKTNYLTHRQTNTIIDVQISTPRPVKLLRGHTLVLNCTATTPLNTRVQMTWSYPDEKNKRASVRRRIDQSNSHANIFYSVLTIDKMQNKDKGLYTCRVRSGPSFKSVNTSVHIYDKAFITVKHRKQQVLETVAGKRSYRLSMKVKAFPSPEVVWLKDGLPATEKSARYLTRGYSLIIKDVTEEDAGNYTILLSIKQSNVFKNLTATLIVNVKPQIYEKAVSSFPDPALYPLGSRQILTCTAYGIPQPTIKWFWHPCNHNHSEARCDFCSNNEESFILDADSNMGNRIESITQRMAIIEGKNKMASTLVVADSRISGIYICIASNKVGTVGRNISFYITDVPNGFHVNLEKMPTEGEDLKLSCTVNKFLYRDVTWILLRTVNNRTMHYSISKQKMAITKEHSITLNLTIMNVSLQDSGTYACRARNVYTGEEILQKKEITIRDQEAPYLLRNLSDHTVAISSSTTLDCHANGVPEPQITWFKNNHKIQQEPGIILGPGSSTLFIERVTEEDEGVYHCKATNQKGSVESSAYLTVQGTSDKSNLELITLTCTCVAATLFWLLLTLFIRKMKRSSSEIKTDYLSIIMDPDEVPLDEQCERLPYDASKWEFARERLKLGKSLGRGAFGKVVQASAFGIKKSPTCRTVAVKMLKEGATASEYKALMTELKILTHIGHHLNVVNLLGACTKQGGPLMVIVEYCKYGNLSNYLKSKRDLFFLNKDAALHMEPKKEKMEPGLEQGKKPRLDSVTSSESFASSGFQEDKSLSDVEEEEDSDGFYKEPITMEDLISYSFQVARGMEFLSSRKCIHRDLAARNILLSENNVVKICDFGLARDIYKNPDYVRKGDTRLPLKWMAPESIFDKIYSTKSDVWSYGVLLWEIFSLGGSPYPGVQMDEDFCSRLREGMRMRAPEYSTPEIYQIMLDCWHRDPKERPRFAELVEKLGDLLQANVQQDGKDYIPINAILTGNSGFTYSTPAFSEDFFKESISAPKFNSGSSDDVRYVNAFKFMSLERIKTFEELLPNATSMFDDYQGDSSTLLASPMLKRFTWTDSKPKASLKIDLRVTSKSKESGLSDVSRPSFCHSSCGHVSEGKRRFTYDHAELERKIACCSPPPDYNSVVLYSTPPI

CNC(=O)c1ccc2c(c1)C(=O)c1ccc(Nc3ccc(F)c(NC(=O)C4CC4)c3)cc1CC2 [Compound 2015]
remaining activity at 0.2 µM ([1]; 0.2 µM 2015, read-out: VEGFR1 residual activity): 113%
remaining activity at 1 µM ([1]; 1 µM 2015, read-out: VEGFR1 residual activity): 116%
remaining activity at 0.2 µM ([1]; VEGFR1, 0.2 µM, read-out: residual activity): 113%
remaining activity at 1 µM ([1]; VEGFR1, 1 µM, read-out: residual activity): 116%
remaining activity at 0.2 µM ([2]; 0.2 µM 2015, read-out: ACVR1B residual activity): 101%
remaining activity at 0.2 µM ([2]; ACVR1B, 0.2 µM, read-out: residual activity): 101%
remaining activity at 1 µM ([2]; ACVR1B, 1 µM, read-out: residual activity): 86.1%
remaining activity at 0.2 µM ([3]; 0.2 µM 2015, read-out: AMPKalpha1 residual activity): 91.7%
remaining activity at 1 µM ([3]; 1 µM 2015, read-out: AMPKalpha1 residual activity): 101%
remaining activity at 0.2 µM ([3]; AMPKalpha1, 0.2 µM, read-out: residual activity): 91.8%
remaining activity at 1 µM ([3]; AMPKalpha1, 1 µM, read-out: residual activity): 101%
remaining activity at 0.2 µM ([4]; 0.2 µM 2015, read-out: MARK2 residual activity): 101%
remaining activity at 1 µM ([4]; 1 µM 2015, read-out: MARK2 residual activity): 99.5%
remaining activity at 0.2 µM ([4]; MARK2, 0.2 µM, read-out: residual activity): 101%
remaining activity at 1 µM ([4]; MARK2, 1 µM, read-out: residual activity): 99.5%
remaining activity at 0.2 µM ([5]; 0.2 µM 2015, read-out: TAOK2 residual activity): 102%
remaining activity at 1 µM ([5]; 1 µM 2015, read-out: TAOK2 residual activity): 103%
remaining activity at 0.2 µM ([5]; TAOK2, 0.2 µM, read-out: residual activity): 102%
remaining activity at 1 µM ([5]; TAOK2, 1 µM, read-out: residual activity): 103%
remaining activity at 0.2 µM ([6]; 0.2 µM 2015, read-out: CDC42BPB residual activity): 101%
remaining activity at 1 µM ([6]; 1 µM 2015, read-out: CDC42BPB residual activity): 93.2%
remaining activity at 0.2 µM ([6]; CDC42BPB, 0.2 µM, read-out: residual activity): 101%
remaining activity at 1 µM ([6]; CDC42BPB, 1 µM, read-out: residual activity): 93.2%
